Tests used:
Assay type in all cases: biochemical
[1] = biological target: T1, Cathepsin L from rat liver (Rattus norvegicus, UniProt P07154); assay: Inhibition of cathepsin L, Z-Phe-Arg-AMC fluorescence progress curves; details: for k/KI (kirr/KI): values without asterisk
T1 construct: Cathepsin L from rat liver; from tissue; host or cells: rat liver
Protocol: (§1) Stock solutions of the various inhibitors (10 mM) were made in DMF; dilutions were made in the same solvent. Cathepsin L from rat liver, (see Mason et al., Biochem. J. 226:233-241 (1985)) was approximately 1 nM in the assay. The assay buffer contained 50 mM phosphate at pH 6:2, 2.5 mM dithiothreitol (DTT), and 2.5 mM ethylenediaminetetraacetic acid (EDTA). The substrate for cathepsin L was 5 μM Z-Phe-Arg-AMC (carbobenzyloxyphenylalanylarginylaminomethylcoumarin). The assays were initiated at 25° C. by addition of enzyme to 2 mL of assay buffer containing the substrate and the various inhibitors (30-0.001 μM). The increase in fluorescence at 460 nm with excitation at 380 nm was followed with time. Inactivation of cathepsin L was indicated by a downward curve in the increase in fluorescence with time. In the absence of inhibitors, the enzymatic production of free AMC was linear throughout the time course of inactivation examined. Data points were collected over at least 3 half-times of inactivation. The inhibition progress curves were analyzed using non-linear curve fitting software to compute the kobs values. Approximate second-order inactivation constants (kobs /[I]) were calculated for all compounds. For selected inhibitors, plots of 1/[I] vs. 1/kobs yielded the true constants kirr, KI, and kirr/KI and were corrected for the presence of substrate by dividing KI (app.) by (1+[S]/Km).

Cloned cathepsin S = biological target: T2, Cloned cathepsin S (Homo sapiens, UniProt P25774); assay: Inhibition of cathepsin S, Z-Val-Val-Arg-AMC fluorescence progress curves; details: for k/KI (kirr/KI): values without asterisk
T2 construct: made in house
T2 sequence (P25774 115-331): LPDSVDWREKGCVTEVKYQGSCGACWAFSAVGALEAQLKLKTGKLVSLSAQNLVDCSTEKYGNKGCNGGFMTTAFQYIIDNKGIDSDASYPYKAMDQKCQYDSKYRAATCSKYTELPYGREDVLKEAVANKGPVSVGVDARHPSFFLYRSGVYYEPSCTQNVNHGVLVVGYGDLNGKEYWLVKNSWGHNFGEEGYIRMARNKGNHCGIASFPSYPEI
Protocol: Stock solutions of the various inhibitors (10 mM) were made in DMF; dilutions were made in the same solvent. Cloned cathepsin S, (see Bromme et al., J. Biol. Chem. 268(&): 4832-4838 (1993)) was less than 1 nM in the assay. The assay buffer contained 100 mM phosphate at pH 6.5, 0.01% Triton, 2.5 mM dithiothreitol (DTT), and 2.5 mM ethylenediaminetetraacetic acid (EDTA). The substrate for cathepsin S was 10 μM Z-Val-Val-Arg-AMC (carbobenzyloxyvalinylvalinylarginylaminomethylcoumarin). The assays were initiated at 25° C. by addition of enzyme to 2 mL of assay buffer containing the substrate and the various inhibitors (30-0.001 μM). The increase in fluorescence at 460 nm with excitation at 380 nm was followed with time. Inactivation of cathepsin S was indicated by a downward curve in the increase in fluorescence with time. In the absence of inhibitors, the enzymatic production of free AMC was linear throughout the time course of inactivation examined. Data points were collected over at least 3 half-times of inactivation. The inhibition progress curves were analyzed using non-linear curve fitting software to compute the kobs values. Approximate second-order inactivation constants (kobs /[I]) were calculated for all compounds. For selected inhibitors, plots of 1/[I] vs. 1/kobs yielded the true constants kirr, KI, and kirr /KI, and were corrected for the presence of substrate by dividing KI (app.) by {1+[S]/Km}.

cruzain, from T. cruzi = cruzain, from T. cruzi (Trypanosoma cruzi, UniProt P25779); assay: Inhibition of cruzain, as for cathepsin L; details: for k/KI (kirr/KI): values without asterisk
Sequence of cruzain, from T. cruzi (P25779 123-337 limits assumed): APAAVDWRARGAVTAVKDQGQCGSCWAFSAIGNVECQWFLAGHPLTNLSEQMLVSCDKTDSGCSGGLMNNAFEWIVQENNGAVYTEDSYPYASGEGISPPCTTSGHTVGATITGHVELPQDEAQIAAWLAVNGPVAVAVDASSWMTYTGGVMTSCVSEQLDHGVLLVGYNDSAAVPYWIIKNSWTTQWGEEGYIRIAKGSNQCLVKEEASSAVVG
Protocol: as §1
Inhibition of cruzain, from T. cruzi, (see Eakin et at., J. Biol. Chem. 268(9): 6115-6118 (1993)) proceeded exactly as for cathepsin L, outlined above, using an enzyme concentration of 1 nM.

[2] = biological target: T3, Cathepsin B from human placenta (Homo sapiens, UniProt P07858); assay: Inhibition of cathepsin B, Z-Arg-Arg-AMC fluorescence progress curves; details: for k/KI (kirr/KI): values without asterisk
T3 construct: Cathepsin B from human placenta, obtained from Sigma; purchased Sigma; host or cells: human placenta (tissue)
Protocol: Stock solutions of the various inhibitors (10 mM) were made in DMF; dilutions were made in the same solvent. Cathepsin B from human placenta, obtained from Sigma, was approximately 10 nM in the assay. The assay buffer contained 50 mM phosphate at pH 6.2, 2.5 mM dithiothreitol (DTT), and 2.5 mM ethylenediaminetetraacetic acid (EDTA). The substrate for cathepsin B was 50 μM Z-Arg-Arg-AMC (carbobenzyloxyarginylarginylaminomethylcoumarin). The assays were initiated at 25° C. by addition of enzyme to 2 mL of assay buffer containing the substrate and the various inhibitors (30-0.001 (μM). The increase in fluorescence at 460 nm with excitation at 380 nm was followed with time, and the assay was linear throughout the range observed. Inactivation of cathepsin B was indicated by a downward curve in the increase in fluorescence with time. In the absence of inhibitors, the enzymatic production of free AMC was linear throughout the time course of inactivation examined. Data points were collected over at least 3 half-times of inactivation, and in duplicate. The inhibition progress curves were analyzed using non-linear curve fitting software to compute the kobs values. Approximate second-order inactivation constants (kobs /[I]) were calculated for all compounds. For selected inhibitors, plots of 1/[I] vs. 1/kobs yielded the true constants kirr, KI, and kirr /KI, and were corrected for the presence of substrate by dividing KI (app.) by {1+[S]/Km }.

calpain = assay: Inhibition (inactivation) of calpain, Suc-Leu-Tyr-AMC; details: values marked * (or %), pH 7.5, 5 mM CaCl2, 25° C.
Protocol: The inhibitors were tested against calpain at 1 or 2% as for the other enzymes. The reaction conditions were 50 mM Tris, pH 7.5, 5 mM CaCl2, 2.5 mM DTT, assayed at 25° C. The substrate was 100 μM Suc-Leu-Tyr-AMC.

[3] = values marked *, 25° C., pH 6.2, read-out: kobs /[I]* (approximate second-order inactivation constant)
[4] = values marked *, 25° C., pH 6.2
[5] = values marked *, 25° C., pH 6.5

T1 sequence (P07154 114-288 limits assumed): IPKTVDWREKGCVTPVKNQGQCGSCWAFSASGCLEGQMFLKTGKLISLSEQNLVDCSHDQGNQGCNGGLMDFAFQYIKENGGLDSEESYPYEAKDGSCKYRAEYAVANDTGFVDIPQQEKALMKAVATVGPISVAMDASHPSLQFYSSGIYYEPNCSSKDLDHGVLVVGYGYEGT
T1 sequence (P07154 291-334 limits assumed): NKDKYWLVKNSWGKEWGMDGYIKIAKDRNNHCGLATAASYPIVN

## COC(=O)CCC(=O)N[C@@H](Cc1ccccc1)C(=O)N[C@H](/C=C/S(=O)(=O)c1ccccc1)CCc1ccccc1 [MeOSuc-Phe-HphVSPh, (S)-(E)-3-(carbomethoxypropionylphenylalanyl)amino-5-phenyl-1-phenylsulfonyl-1-pentene]
[1]; [3]
  kinact/KI: 47000 M⁻¹ s⁻¹
Cloned cathepsin S; values marked *, 25° C., pH 6.5, read-out: kobs /[I]* (approximate second-order inactivation constant)
  kinact/KI: 740000 M⁻¹ s⁻¹
cruzain, from T. cruzi; pH 6.2, values marked *, read-out: kobs /[I]* (approximate second-order inactivation constant)
  kinact/KI: 34000 M⁻¹ s⁻¹
[2]; [3]
  kinact/KI: 870 M⁻¹ s⁻¹

## (S)-(E)-3-(4-morpholinecarbonylvalyl)amino-4-phenyl-1-phenylsulfonyl-1-butene [Mu-Val-PheVSPh]
calpain
  kobs /[I]*: 110 M⁻¹ s⁻¹

## C[C@H](NC(=O)OC(C)(C)C)C(=O)N[C@H](/C=C/S(C)(=O)=O)Cc1ccccc1 [Boc-Ala-PheVSMe, (S)-(E)-3-(tert-2butoxycarbonylalanyl)amino-1-methylsulfonyl-4-phenyl-1-butene]
calpain
  kobs /[I]*: 60 M⁻¹ s⁻¹

## CSCC[C@@H](/C=C/S(=O)(=O)c1ccccc1)NC(=O)[C@H](Cc1ccccc1)NC(=O)N1CCOCC1 [Mu-Phe-MetVSPh, (S)-(E)-3-(4-morpholinecarbonylphenylalanyl)amino-1-phenylsulfonyl-6-thia-1-heptene]
[1]; 25° C., pH 6.2
  k/KI (kirr/KI): 250,000 M^-1 sec^-1
Cloned cathepsin S; 25° C., pH 6.5
  k/KI (kirr/KI): 4,000,000 M^-1 sec^-1
cruzain, from T. cruzi
  k/KI (kirr/KI): 111,000 M^-1 sec^-1
[2]; 25° C., pH 6.2
  k/KI (kirr/KI): 7,000 M^-1 sec^-1

## Cl.N[C@H](/C=C/S(=O)(=O)c1ccccc1)Cc1ccccc1 [Phe-VSPh, (S)-(E)-3-amino-4-phenyl-1-phenylsulfonyl-1-butene hydrochloride]
calpain
  kobs /[I]*: < 50 M⁻¹ s⁻¹

## O=C(N[C@H](/C=C/S(=O)(=O)c1ccc2ccccc2c1)CCc1ccccc1)C(Cc1ccc2ccccc2c1)NC(=O)N1CCOCC1 (stereo partly drawn) [Mu-Np-HphVSNp, (S)-(E)-3-(4-morpholinecarbonyl-2-naphthylalanyl)amino-1-(2-napthylsulfonyl)-5-phenyl-1-pentene]
[1]
  kirr: 0.14 s⁻¹
[1]; corrected for substrate
  Ki: 18 nM
[1]; 25° C., pH 6.2
  k/KI (kirr/KI): 9,200,000 M^-1 sec^-1
Cloned cathepsin S
  kirr: 0.10 s⁻¹
Cloned cathepsin S; corrected for substrate
  Ki: 1.8 nM
Cloned cathepsin S; 25° C., pH 6.5
  k/KI (kirr/KI): 56,000,000 M^-1 sec^-1
cruzain, from T. cruzi
  Ki: 25 nM
  kirr: 0.044 s⁻¹
  k/KI (kirr/KI): 1,770,000 M^-1 sec^-1
[2]; [4]
  kobs /[I]* (approximate second-order inactivation constant): 184,000 M^-1 sec^-1

## CCCC[C@@H](/C=C/S(=O)(=O)c1ccccc1)NC(=O)[C@H](Cc1ccccc1)NC(=O)N1CCOCC1 [Mu-Phe-NleVSPh, (S)-(E)-3-(4-morpholinecarbonylphenylalanyl)amino-1-phenylsulfonyl-1-heptene]
[1]; 25° C., pH 6.2
  k/KI (kirr/KI): 188,000 M^-1 sec^-1
Cloned cathepsin S; [5]
  kobs /[I]* (approximate second-order inactivation constant): 2,300,000 M^-1 sec^-1
cruzain, from T. cruzi
  k/KI (kirr/KI): 77,000 M^-1 sec^-1
[2]; 25° C., pH 6.2
  k/KI (kirr/KI): 7,600 M^-1 sec^-1

## (S)-(E)-3-(4-morpholinecarbonylleucylleucyl)amino-4-(4-hydroxyphenyl)-1-phenylsulfonyl-1-butene [Mu-Leu-Leu-TyrVSPh]
calpain
  kobs /[I]*: 10,800 M^-1 sec^-1
calpain; listed as Mu-Leu-Leu-Tyr-VSPh
  kobs /[I]*: 7,600 M^-1 sec^-1
Cloned cathepsin S; [5]
  kobs /[I]* (approximate second-order inactivation constant): 25,100 M^-1 sec^-1

## (S)-(E)-3-(4-morpholinecarbonylphenylalanyl)amino-5-methylsulfonyl-1-phenylsulfonyl-1-pentene [Mu-Phe-Met(O2)VSPh]
[1]; 25° C., pH 6.2
  k/KI (kirr/KI): 250,000 M^-1 sec^-1
Cloned cathepsin S; 25° C., pH 6.5
  k/KI (kirr/KI): 2,800,000 M^-1 sec^-1
cruzain, from T. cruzi
  k/KI (kirr/KI): 160,000 M^-1 sec^-1
[2]; [4]
  kobs /[I]* (approximate second-order inactivation constant): 1,600 M^-1 sec^-1

## O=C(N[C@H](/C=C/S(=O)(=O)c1ccc2ccccc2c1)CCc1ccccc1)[C@H](Cc1ccccc1)NC(=O)N1CCOCC1 [Mu-Phe-HphVSNp, (S)-(E)-3-(4-morpholinecarbonylphenylalanyl)amino-1-(2-napthylsulfonyl)-5-phenyl-1-pentene]
Cloned cathepsin S; [5]
  kobs /[I]* (approximate second-order inactivation constant): > 5,400,000 M^-1 sec^-1
cruzain, from T. cruzi
  Ki: 110 nM
  kirr: 0.08 s⁻¹
  k/KI (kirr/KI): 740,000 M^-1 sec^-1
[2]
  kirr: 0.087 s⁻¹
[2]; corrected for substrate
  Ki: 1400 nM
[2]; 25° C., pH 6.2
  k/KI (kirr/KI): 63,700 M^-1 sec^-1

Source: US6287840A (Axys Pharmaceuticals, Inc., priority 1999, dated 2001)
